Results on four molecules are retold here after patent US20240239767A1 (AstraZeneca AB, priority 2022, published 2024).

For test [1], the target named is T1, PCSK9 (Homo sapiens, UniProt Q8NBP7). To be noted: clinical trials, compared to placebo (Elbitar 2016); cited from earlier work.
Target sequence in this assay (Q8NBP7 153-692): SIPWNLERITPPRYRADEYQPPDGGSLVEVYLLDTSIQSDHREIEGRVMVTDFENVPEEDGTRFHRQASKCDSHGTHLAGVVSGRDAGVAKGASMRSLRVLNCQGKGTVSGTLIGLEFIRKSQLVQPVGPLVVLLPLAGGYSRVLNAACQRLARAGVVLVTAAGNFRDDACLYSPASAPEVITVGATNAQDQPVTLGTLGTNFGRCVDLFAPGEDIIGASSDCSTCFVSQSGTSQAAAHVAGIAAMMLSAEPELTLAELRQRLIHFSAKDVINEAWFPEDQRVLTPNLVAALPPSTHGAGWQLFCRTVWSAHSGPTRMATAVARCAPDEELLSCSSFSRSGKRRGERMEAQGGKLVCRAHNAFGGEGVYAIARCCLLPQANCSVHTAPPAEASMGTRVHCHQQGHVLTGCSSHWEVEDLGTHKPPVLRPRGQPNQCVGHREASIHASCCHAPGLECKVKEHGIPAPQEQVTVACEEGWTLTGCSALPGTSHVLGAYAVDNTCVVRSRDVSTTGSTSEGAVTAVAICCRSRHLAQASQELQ
The target in test [2] is T2, PCSK9 (Homo sapiens, UniProt Q8NBP7, G670E/V474I). Kind of test: cell-based.
Target sequence in this assay (Q8NBP7 31-152): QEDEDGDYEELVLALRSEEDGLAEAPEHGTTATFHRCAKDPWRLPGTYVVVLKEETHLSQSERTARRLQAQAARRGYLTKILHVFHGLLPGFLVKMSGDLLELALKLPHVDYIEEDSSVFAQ
Target sequence in this assay (Q8NBP7 153-692 V474I/G670E): as the sequence (Q8NBP7 153-692) above, with V322I, G518E counted along it
In test [3] the target is T3, potassium ion channel hERG (human Ether-á-go-go-Related Gene) (Homo sapiens, UniProt Q12809).
T3 construct: expressed in transfected cells; host or cells: Chinese hamster ovary K1 (CHO)
Kind of test: Assay 5 - hERG assay (SyncroPatch 384PE patch clamp, CHO cells). The following applies: geometric mean, CHO cells over-expressing hERG, read-out: Assay 5 (hERG Hu CHO IF EPh CR-Syncro) GMean IC50. It counts as cell-based. In short, it runs like this: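 Automated whole-cell patch clamp at room temperature on CHO-K1 cells over-expressing hERG, using K-fluoride/escin internal solution (pH 7.2) and NMDG-containing external solution (pH 7.4). Compounds were tested in a 6-point cumulative format, 0.33% final DMSO. Wells accepted only with seal >30 MegaOhm, Z′>0.4 and current >0.2 nA.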
(The hERG channel carries a current that helps repolarise heart muscle cells.)

The target in test [4] is GSK3b (Glycogen synthase kinase-3 beta) (Homo sapiens, UniProt P49841). Kind of test: Assay 6 - GSK3b assay (ThermoFisher, FRET Z-Lyte). The following applies: geometric mean; ATP Conc: 10.000 μM; read-out: Assay 6 (GSK3B FRET-Z-Lyte CR) GMean IC50 (μM) ATP Conc: 10.000. It counts as biochemical. The method in brief:
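Z-Lyte FRET kinase assay: 0.22-0.92 ng GSK3β with 2 μM Ser/Thr 09 peptide in 50 mM HEPES pH 7.5, 10 mM MgCl2, 1 mM EGTA, 0.01% BRIJ-35, 60 min at room temperature, then 60 min development. Compounds in 1% DMSO, 10-point 3-fold dilutions from 10 μM; sigmoidal dose-response fit.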

The target in test [5] is T2, PCSK9. Kind of test: biochemical.
Target sequence in this assay (Q8NBP7 with tags, fused parts or gaps V474I/G670E): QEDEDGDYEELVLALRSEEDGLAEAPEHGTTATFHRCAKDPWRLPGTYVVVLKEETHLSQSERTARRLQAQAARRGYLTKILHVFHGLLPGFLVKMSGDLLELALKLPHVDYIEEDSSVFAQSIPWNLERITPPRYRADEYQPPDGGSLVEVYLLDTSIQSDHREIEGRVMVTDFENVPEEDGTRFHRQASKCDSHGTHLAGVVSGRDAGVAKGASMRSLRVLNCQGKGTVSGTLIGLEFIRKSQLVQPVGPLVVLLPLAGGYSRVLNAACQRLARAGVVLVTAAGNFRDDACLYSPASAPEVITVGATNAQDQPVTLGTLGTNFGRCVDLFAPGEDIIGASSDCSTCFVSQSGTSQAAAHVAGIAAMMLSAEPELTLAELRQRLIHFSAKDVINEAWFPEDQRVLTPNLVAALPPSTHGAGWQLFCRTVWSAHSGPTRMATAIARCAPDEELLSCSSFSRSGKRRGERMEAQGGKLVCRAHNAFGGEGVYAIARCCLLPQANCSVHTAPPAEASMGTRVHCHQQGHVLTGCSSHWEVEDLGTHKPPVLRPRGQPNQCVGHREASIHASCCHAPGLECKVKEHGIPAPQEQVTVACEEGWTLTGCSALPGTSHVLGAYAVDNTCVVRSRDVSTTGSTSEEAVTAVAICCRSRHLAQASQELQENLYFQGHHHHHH
The target of test [6] is T1, PCSK9. In words: Assay 2 - Biophysical human PCSK9 assay (SPR, Biacore). It counts as binding. Also noted: biotinylated human PCSK9 (31-692)-Avi-His6. To be noted: geometric mean; SPR single-cycle kinetics, 30° C.; read-out: Assay 2 (PCSK9 BIAcore DBA CR) GMean Kd. Here is the method:
The SPR binding experiments were performed on a Biacore S200 optical biosensor unit at 30° C. A Series S Sensor Chip SA that is designed to bind biotinylated molecules for interaction analysis in Biacore systems was equilibrated at room temperature prior to use. The running buffer for protein tethering and subsequent ligand binding experiments was 10 mM HEPES pH 7.4, 150 mM NaCl, 0.05% (v/v) Tween 20 pH 7.4.
For the surface tethering of PCSK9, biotinylated human PCSK9 (31-692)-Avi-His6 at a concentration of 0.5 mg/mL was used. Prior to the surface tethering, the surface was exposed to a solution of 50 mM NaOH, 500 mM NaCl via 3 consecutive injections of this solution with a contact time of 60 s and a flowrate of 10 μL min- to remove non-conjugated streptavidin. The PCSK9 protein was diluted to a concentration of 20 μg/mL using running buffer and injected with a contact time of 180-300 s and a flowrate of 10 μL min^−1 over a single flow channel (typically flow channel 2 or flow channel 4) with the aim to achieve protein capture levels of >5000 response units (RU). Remaining biotin binding sites were blocked via 2 consecutive injections of a 10 μM D-biotin solution in running buffer with a contact time of 60 s and a flowrate of 10 μL min^−1 over all flow-channels.
The binding experiments were all performed at a flow rate of 30 μL min^−1 and by employing the method of single-cycle kinetics. This approach involves the sequential injection of a compound concentration series without regeneration steps. A contact time between 90-150 s was selected, which was followed by a 40 min dissociation phase to allow for a proper estimation of the dissociation rate constant. Test compounds were delivered in DMSO at a concentration of 10 mM and a digital dispenser HP D300 was used to set up the compound concentration series using 6 concentrations. The tested concentrations have been 30, 100, 300, 1000, 3000 and 10000 nM. Prior to injecting any compound, the surfaces were equilibrated by injecting running buffer over them in three separate pulses. The data collection rate was set to 10 Hz.
The raw sensorgrams of the compound injections were first subjected to reference subtraction (subtracting the signal from flow channel 1 and/or 3 from the signal from channels 2 and/or 4 respectively) and then blank subtraction (subtracting the signal from injecting DMSO controls from the reference subtracted data). The resulting double-referenced sensorgrams were then fitted using a 1:1 binding interaction model using the manufactures software package to extract kinetic- and affinity data.
Target sequence in this assay (Q8NBP7 31-692): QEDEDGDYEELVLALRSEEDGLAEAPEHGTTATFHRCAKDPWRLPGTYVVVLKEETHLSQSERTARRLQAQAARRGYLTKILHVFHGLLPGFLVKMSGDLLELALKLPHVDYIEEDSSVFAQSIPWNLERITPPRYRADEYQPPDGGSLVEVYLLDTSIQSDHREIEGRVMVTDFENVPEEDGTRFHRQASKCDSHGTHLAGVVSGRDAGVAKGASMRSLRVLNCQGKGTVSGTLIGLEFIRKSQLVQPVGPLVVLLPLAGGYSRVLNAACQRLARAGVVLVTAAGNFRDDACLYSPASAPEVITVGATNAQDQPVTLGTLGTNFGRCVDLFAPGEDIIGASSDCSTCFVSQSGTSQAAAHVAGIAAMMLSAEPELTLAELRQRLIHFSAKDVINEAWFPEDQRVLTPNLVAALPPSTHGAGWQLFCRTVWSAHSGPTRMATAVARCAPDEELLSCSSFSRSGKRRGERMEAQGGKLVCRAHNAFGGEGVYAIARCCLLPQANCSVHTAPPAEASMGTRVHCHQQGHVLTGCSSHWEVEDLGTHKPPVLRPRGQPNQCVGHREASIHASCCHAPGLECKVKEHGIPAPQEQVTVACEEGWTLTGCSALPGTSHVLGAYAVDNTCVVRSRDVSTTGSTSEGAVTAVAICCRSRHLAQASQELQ

T3 sequence (Q12809 whole entry): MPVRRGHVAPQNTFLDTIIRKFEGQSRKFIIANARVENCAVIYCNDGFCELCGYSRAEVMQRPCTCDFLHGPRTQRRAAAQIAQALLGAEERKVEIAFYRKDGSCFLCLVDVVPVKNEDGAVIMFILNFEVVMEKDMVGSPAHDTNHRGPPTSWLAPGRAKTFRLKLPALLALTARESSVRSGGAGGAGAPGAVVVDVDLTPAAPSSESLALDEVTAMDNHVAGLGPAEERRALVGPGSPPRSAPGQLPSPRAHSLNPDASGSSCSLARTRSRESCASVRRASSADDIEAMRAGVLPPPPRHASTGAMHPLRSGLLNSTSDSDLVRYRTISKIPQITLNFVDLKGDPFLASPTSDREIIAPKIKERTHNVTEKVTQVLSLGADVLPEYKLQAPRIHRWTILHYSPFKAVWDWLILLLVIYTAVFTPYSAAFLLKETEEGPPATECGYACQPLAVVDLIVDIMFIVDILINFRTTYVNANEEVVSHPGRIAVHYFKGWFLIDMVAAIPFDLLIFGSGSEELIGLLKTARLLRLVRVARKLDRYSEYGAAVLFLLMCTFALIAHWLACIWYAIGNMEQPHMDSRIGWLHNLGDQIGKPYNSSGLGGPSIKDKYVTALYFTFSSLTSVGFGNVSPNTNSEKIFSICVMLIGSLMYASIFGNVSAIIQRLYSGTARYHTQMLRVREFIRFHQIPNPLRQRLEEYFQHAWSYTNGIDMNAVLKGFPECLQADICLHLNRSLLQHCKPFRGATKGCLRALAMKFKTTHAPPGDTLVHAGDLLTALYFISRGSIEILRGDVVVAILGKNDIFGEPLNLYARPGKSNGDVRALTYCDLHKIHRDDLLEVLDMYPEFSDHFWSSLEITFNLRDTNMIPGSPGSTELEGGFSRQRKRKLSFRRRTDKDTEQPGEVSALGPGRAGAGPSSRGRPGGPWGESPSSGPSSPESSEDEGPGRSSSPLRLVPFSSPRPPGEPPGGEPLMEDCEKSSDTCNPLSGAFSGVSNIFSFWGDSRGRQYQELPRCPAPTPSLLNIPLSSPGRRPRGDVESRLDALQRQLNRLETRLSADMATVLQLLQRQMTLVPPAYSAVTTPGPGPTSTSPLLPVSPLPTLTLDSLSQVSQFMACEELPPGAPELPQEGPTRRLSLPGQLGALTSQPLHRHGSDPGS
GSK3b (Glycogen synthase kinase-3 beta), sequence (P49841 whole entry): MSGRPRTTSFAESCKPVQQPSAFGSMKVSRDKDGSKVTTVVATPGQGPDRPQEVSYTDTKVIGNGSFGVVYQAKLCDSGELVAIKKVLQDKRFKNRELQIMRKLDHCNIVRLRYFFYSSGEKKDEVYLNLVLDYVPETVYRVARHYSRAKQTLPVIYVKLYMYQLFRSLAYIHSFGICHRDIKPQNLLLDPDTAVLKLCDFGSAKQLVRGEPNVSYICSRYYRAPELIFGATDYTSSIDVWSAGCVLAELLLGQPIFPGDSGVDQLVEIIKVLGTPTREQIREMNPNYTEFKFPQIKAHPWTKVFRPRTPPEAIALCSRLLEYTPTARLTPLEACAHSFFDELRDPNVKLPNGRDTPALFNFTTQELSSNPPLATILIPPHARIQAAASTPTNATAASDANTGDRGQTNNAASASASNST

On to alirocumab, for which, in the test with PCSK9 [1], the “decrease in LDL levels” value is “about 50%”.

Take `COc1cccn(-c2ccc(N[C@H]3CC[C@H](Nc4nc5cccnc5o4)C3)nc2)c1=O` [Example 12, 3-Methoxy-6′-(((1S,3S)-3-(oxazolo[5,4-b]pyridin-2-ylamino)cyclopentyl)amino)-2H-[1,3′-bipyridin]-2-one]: the IC50 (as a rule, the concentration that gives 50% inhibition) was 158 nM at PCSK9 [2], more than 40 µM in test [3], more than 10 µM in test [4] and 3.5 nM on PCSK9 [5]. On PCSK9 [6], the Kd – broadly, the concentration at which binding is half-saturated – amounted to 3 nM.

In the case of `Cn1c(=O)n(-c2ccc(N[C@H]3CC[C@H](Nc4nc5cccnc5o4)C3)nc2)c2ncccc21` [Example 18, 1-Methyl-3-(6-(((1S,3S)-3-(oxazolo[5,4-b]pyridin-2-ylamino)cyclopentyl)amino)pyridin-3-yl)-1,3-dihydro-2H-imidazo[4,5-b]pyridin-2-one], the IC50 is 52 nM against PCSK9 [2], more than 40 µM in test [3], more than 10 µM in test [4] and 2.3 nM on PCSK9 [5]. In addition, on PCSK9 [6], the equilibrium dissociation constant (Kd) was 3 nM.

On to `O=c1[nH]c2ccsc2c(=O)n1-c1ccc(N[C@H]2CC[C@H](Nc3nc4cccnc4s3)C2)nc1` [Example 83, 3-(6-(((1S,3S)-3-(Thiazolo[5,4-b]pyridin-2-ylamino)cyclopentyl)amino)pyridin-3-yl)thieno[3,2-d]pyrimidine-2,4(1H,3H)-dione], for which the IC50 on PCSK9 [2] was 79 nM; in test [3], more than 40.1 µM; in test [4], more than 10 µM; against PCSK9 [5], 0.5 nM. Moreover, the Kd on PCSK9 [6] came to 0.1 nM.
